Data reported in PubChem BioAssay AID330 (DTP/NCI, 2004).
“And” between values parts separate entries of the source, which are not always exact repeats. Identical values can stand only once. Inconclusive results and toxic doses are left out. Rule for the calls: active = survival T/C of 150% or more; inactive = T/C below 125% in these data.

Tested on: P388 leukemia ip, CD2F1 mice, survival T/C
Assay: NCI In Vivo Anticancer Drug Screen. Data for tumor model P388 Leukemia (intraperitoneal) in CD2F1 (CDF1) mice
Conditions: endpoint: median survival time, higher = longer survival
Method in brief: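 Mice carrying the transplanted tumor received test compound or vehicle. Survival was recorded in each group, and the value is the treated-group measurement divided by that of the vehicle-treated control group.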

[1] = dose: 12.5 mg/kg/injection, schedule: Q01DX005 (ip), vehicle: saline with Tween-80
[2] = dose: 25.0 mg/kg/injection, schedule: Q01DX005 (ip), vehicle: saline with Tween-80
[3] = dose: 25.0 mg/kg/injection, schedule: Q01DX009 (ip), vehicle: other
[4] = dose: 50.0 mg/kg/injection, schedule: Q01DX009 (ip), vehicle: other
[5] = dose: 100.0 mg/kg/injection, schedule: Q01DX009 (ip), vehicle: other
[6] = dose: 200.0 mg/kg/injection, schedule: Q01DX009 (ip), vehicle: other
[7] = dose: 400.0 mg/kg/injection, schedule: Q01DX009 (ip), vehicle: other
[8] = dose: 50.0 mg/kg/injection, schedule: Q01DX009 (ip), vehicle: saline with Tween-80
[9] = dose: 100.0 mg/kg/injection, schedule: Q01DX009 (ip), vehicle: saline with Tween-80
[10] = dose: 200.0 mg/kg/injection, schedule: Q01DX009 (ip), vehicle: saline with Tween-80
[11] = dose: 50.0 mg/kg/injection, schedule: Q01DX009 (ip), vehicle: Klucel (hydroxypropylcellulose) (HPC)
[12] = dose: 100.0 mg/kg/injection, schedule: Q01DX009 (ip), vehicle: Klucel (hydroxypropylcellulose) (HPC)
[13] = dose: 200.0 mg/kg/injection, schedule: Q01DX009 (ip), vehicle: Klucel (hydroxypropylcellulose) (HPC)
[14] = dose: 100.0 mg/kg/injection, schedule: Q04DX002 (ip), vehicle: saline with Tween-80
[15] = dose: 200.0 mg/kg/injection, schedule: Q04DX002 (ip), vehicle: saline with Tween-80
[16] = dose: 400.0 mg/kg/injection, schedule: Q04DX002 (ip), vehicle: saline with Tween-80
[17] = dose: 50.0 mg/kg/injection, schedule: Q01DX005 (ip), vehicle: saline with Tween-80
[18] = dose: 100.0 mg/kg/injection, schedule: Q01DX005 (ip), vehicle: saline with Tween-80
[19] = dose: 200.0 mg/kg/injection, schedule: Q01DX005 (ip), vehicle: saline with Tween-80
[20] = dose: 60.0 mg/kg/injection, schedule: Q01DX005 (ip), vehicle: saline with Tween-80
[21] = dose: 120.0 mg/kg/injection, schedule: Q01DX005 (ip), vehicle: saline with Tween-80
[22] = dose: 240.0 mg/kg/injection, schedule: Q01DX005 (ip), vehicle: saline with Tween-80
[23] = dose: 12.5 mg/kg/injection, schedule: Q01DX009 (ip), vehicle: saline with Tween-80
[24] = dose: 25.0 mg/kg/injection, schedule: Q01DX009 (ip), vehicle: saline with Tween-80
[25] = dose: 25.0 mg/kg/injection, schedule: Q04DX003 (ip), vehicle: saline

Measured: T/C

Cc1cc(N=Nc2ccc(-c3ccc(N=Nc4ccc(O)c(C(=O)O)c4)cc3)cc2)c(N)c(N=Nc2ccc(C(=O)Nc3ccc(S(=O)(=O)O)cc3)cc2)c1N
inactive: dose: 6.25 mg/kg/injection, schedule: Q01DX005 (ip), vehicle: saline with Tween-80 100 % of control | [1] 101 % of control | [2] 101 % of control

CC(=O)Nc1ccc2c(C)ccnc2c1
inactive: dose: 50.0 mg/kg/injection, schedule: Q01DX009 (ip), vehicle: distilled water + alcohol 103 % of control | dose: 100.0 mg/kg/injection, schedule: Q01DX009 (ip), vehicle: distilled water + alcohol 104 % of control | dose: 200.0 mg/kg/injection, schedule: Q01DX009 (ip), vehicle: distilled water + alcohol 105 % of control

COc1ccc2c(C)cc(N/N=C/c3cccc(C)n3)nc2c1
inactive: dose: 50.0 mg/kg/injection, schedule: Q01DX005 (ip), vehicle: Klucel (hydroxypropylcellulose) (HPC) 98 % of control and 104 % of control and 93 % of control | dose: 100.0 mg/kg/injection, schedule: Q01DX005 (ip), vehicle: Klucel (hydroxypropylcellulose) (HPC) 105 % of control and 109 % of control and 110 % of control | dose: 200.0 mg/kg/injection, schedule: Q01DX005 (ip), vehicle: Klucel (hydroxypropylcellulose) (HPC) 104 % of control and 116 % of control and 124 % of control

CC(=O)N(C)N(Cc1ccc([N+](=O)[O-])cc1)C(C)=O
inactive: [3] 95 % of control | [4] 102 % of control | [5] 93 % of control | [6] 93 % of control | [7] 89 % of control

Cc1ccc(S(=O)(=O)NN=C2C3CCC2CC3)cc1
inactive: [8] 111 % of control | [9] 108 % of control | [10] 118 % of control

CCOc1ccc(/C=C2\CCc3ccccc3C2=O)cc1
inactive: [11] 98 % of control | [12] 102 % of control | [13] 99 % of control

CCN(CC(O)CN(CC1CO1)c1ccccc1)c1ccccc1 (stereo unspecified)
inactive: [14] 100 % of control | [15] 94 % of control | [16] 101 % of control

CCOc1ccc2c(c1)[n+](=O)c1ccc(Cl)cc1n2[O-]
inactive: [17] 104 % of control and 111 % of control and 118 % of control | [18] 104 % of control and 116 % of control and 118 % of control | [19] 112 % of control

CCCCN(CCCC)CC(O)c1cccc2cc(Cl)ccc12 (stereo unspecified)
inactive: [17] 104 % of control | [18] 109 % of control

Oc1c(N=Nc2nn[nH]n2)ccc2ccccc12
inactive: [17] 105 % of control | [18] 97 % of control | [19] 99 % of control

Cc1ccnc(NS(=O)(=O)c2ccc(N=Cc3c4ccccc4nc4cc(Cl)ccc34)cc2)n1
inactive: [20] 96 % of control | [21] 93 % of control | [22] 96 % of control

Nc1nc2scnc2c(=O)[nH]1
inactive: [1] 88 % of control | [2] 101 % of control | [17] 109 % of control and 97 % of control | [18] 102 % of control | [19] 112 % of control

CSC1=Nc2cc3c(cc2C(=O)N2CC(OC(C)=O)CC12)OCO3 (stereo unspecified)
inactive: [17] 98 % of control | [18] 99 % of control | [19] 97 % of control

CSc1nc2c(Br)cnn2c(=O)[nH]1
inactive: dose: 100.0 mg/kg/injection, schedule: Q01DX001 (ip), vehicle: saline with Tween-80 94 % of control | dose: 200.0 mg/kg/injection, schedule: Q01DX001 (ip), vehicle: saline with Tween-80 101 % of control | dose: 400.0 mg/kg/injection, schedule: Q01DX001 (ip), vehicle: saline with Tween-80 100 % of control

CCCCCCCC/C=C\CCCCCCCCCCCC(=O)O
inactive: [11] 100 % of control | [4] 100 % of control | [12] 92 % of control | [5] 106 % of control | [13] 91 % of control | [6] 102 % of control | dose: 400.0 mg/kg/injection, schedule: Q01DX009 (ip), vehicle: Klucel (hydroxypropylcellulose) (HPC) 98 % of control | [7] 94 % of control

OCC1OC(ONc2ccccc2)C(O)C(O)C1O (stereo unspecified)
inactive: dose: 60.0 mg/kg/injection, schedule: Q01DX005 (ip), vehicle: Klucel (hydroxypropylcellulose) (HPC) 94 % of control | dose: 120.0 mg/kg/injection, schedule: Q01DX005 (ip), vehicle: Klucel (hydroxypropylcellulose) (HPC) 99 % of control | dose: 240.0 mg/kg/injection, schedule: Q01DX005 (ip), vehicle: Klucel (hydroxypropylcellulose) (HPC) 100 % of control

CCCCCCCCSc1nc(Nc2cc(C(C)(C)C)c(O)c(C(C)(C)C)c2)nc(SCCCCCCCC)n1
inactive: [23] 105 % of control | [24] 104 % of control | [8] 99 % of control and 92 % of control | [10] 100 % of control

S=C(S)N1CCCNCC1 (tested in a mixture with another compound)
inactive: [23] 101 % of control and 89 % of control | [24] 92 % of control and 97 % of control | [8] 86 % of control and 97 % of control

COc1c(-c2ccccc2)cc(-c2ccccc2)c(-c2ccccc2)c1-c1ccccc1
inactive: [14] 93 % of control | [15] 86 % of control | [16] 89 % of control

O/N=C(Sc1ccccn1)/C(=N/O)Sc1ccccn1
inactive: [17] 101 % of control | [18] 109 % of control | [19] 113 % of control

O=C(CCCCl)CC(O)(C(F)(F)Cl)C(F)(F)Cl
inactive: [25] 100 % of control | dose: 50.0 mg/kg/injection, schedule: Q04DX003 (ip), vehicle: saline 100 % of control | dose: 100.0 mg/kg/injection, schedule: Q04DX003 (ip), vehicle: saline 95 % of control

CCCCCCCCCCCCCCC1(O)OC(=O)C(C)=C1C (stereo unspecified)
inactive: dose: 12.5 mg/kg/injection, schedule: Q04DX003 (ip), vehicle: saline with Tween-80 106 % of control | dose: 25.0 mg/kg/injection, schedule: Q04DX003 (ip), vehicle: saline with Tween-80 103 % of control | dose: 50.0 mg/kg/injection, schedule: Q04DX003 (ip), vehicle: saline with Tween-80 106 % of control

CCCNC(C)(C)C(SS)c1ccc(C(F)(F)F)cc1 (stereo unspecified)
inactive: dose: 12.5 mg/kg/injection, schedule: Q01DX009 (ip), vehicle: other 100 % of control | [3] 100 % of control | [4] 109 % of control

Nc1nc(N)c2nc(C(=O)c3ccccc3)c(-c3ccccc3)nc2n1
inactive: [8] 92 % of control | [9] 97 % of control | [10] 90 % of control

O=C(NC(=S)Nc1ccc(CCO)cc1)c1cccc(Br)c1
inactive: dose: 3.75 mg/kg/injection, schedule: Q01DX005 (ip), vehicle: saline with Tween-80 91 % of control | dose: 7.5 mg/kg/injection, schedule: Q01DX005 (ip), vehicle: saline with Tween-80 90 % of control | dose: 15.0 mg/kg/injection, schedule: Q01DX005 (ip), vehicle: saline with Tween-80 87 % of control | [22] 92 % of control

Clc1ccc(CSc2cnnc3ccccc23)c(Cl)c1
inactive: dose: 75.0 mg/kg/injection, schedule: Q01DX009 (ip), vehicle: suspension in saline 96 % of control | dose: 150.0 mg/kg/injection, schedule: Q01DX009 (ip), vehicle: suspension in saline 89 % of control | dose: 300.0 mg/kg/injection, schedule: Q01DX009 (ip), vehicle: suspension in saline 89 % of control

[Cl][Sn]1([Cl])[N]2CCCCC2C2CCCC[N]21 (stereo unspecified)
inactive: dose: 100.0 mg/kg/injection, schedule: Q04DX003 (ip), vehicle: saline with Tween-80 97 % of control | dose: 200.0 mg/kg/injection, schedule: Q04DX003 (ip), vehicle: saline with Tween-80 99 % of control

CCOC(=O)c1c(C)[nH]c(-c2ccccc2)c1NS(=O)(=O)c1ccc(N)cc1
inactive: [20] 93 % of control | [21] 94 % of control

O=S(=O)(/C=C/c1cccnc1)/C=C/c1cccnc1
inactive: [24] 106 % of control | [8] 100 % of control

O=C(Oc1cc(Cl)ccc1Cl)c1ccccc1
inactive: [23] 109 % of control and 96 % of control | [24] 100 % of control and 98 % of control | [8] 100 % of control and 102 % of control | [9] 102 % of control and 91 % of control

COC(=O)/C=C/C(=O)NC(N)=O
inactive: dose: 6.25 mg/kg/injection, schedule: Q04DX003 (ip), vehicle: saline 100 % of control | dose: 12.5 mg/kg/injection, schedule: Q04DX003 (ip), vehicle: saline 109 % of control | [25] 100 % of control
